Data on 10 molecules can be found in US11365185B2, “Lysophosphatidic acid receptor 1 (LPAR1) inhibitor compounds” (Eli Lilly and Company, priority 2017, dated 2022).

Structures are written as SMILES. Counter-ions that a name gives are not always drawn.

Data set [1] concerns the target human LPAR3 (Homo sapiens (Human), UniProt Q9UBY5). Description: LPAR3 Calcium Flux Assay. Format: cell-based. Particulars: U2OS cells overexpressing human LPAR3, LPA-stimulated calcium, FLIPR. The protocol: LPAR3 Calcium Flux Assays
A cDNA encoding the human LPAR3 receptor is synthesized and cloned into pDNA3 expression plasmid. The plasmid is transfected in U2OS cells using Lipofectamine 2000 (Invitrogen Corp., USA). Clones stably expressing human LPAR3 are selected using neomycin and identified as cells that show Ca-influx in response to LPA.
U2OS cells overexpressing human LPAR3 are seeded at 20,000-40,000 cells per well in a 96-well poly-D-lysine coated plate one day before the assay. Prior to the assay, the cells are washed once with assay buffer (HBSS containing 20 mM HEPES and 0.2% BSA) and then incubated in 50 μl of assay buffer for 60 minutes. Then 50 μl of a calcium indicator dye (Fluo-4 NW, Molecular Probes) are added to each well and incubation is continued for 30 minutes at 37° C. and then 30 minutes at room temperature. 50 μl of test compounds in 4% DMSO are added to the cells and incubation continued at room temperature for 40 minutes. Cells are stimulated by the addition of 50 μl of 128 nM LPA and intracellular calcium is measured using the FLIPR TETRA (Molecular Devices). IC50 values are determined using “Genedata Screener” analysis tool.
For orientation: Calcium flux is commonly read through the fluorescence of an indicator in the cells.

In data set [2] the target is T1, LPAR1 (Homo sapiens (Human), UniProt Q92633). Briefly: LPAR1 Membrane Binding Assay. Particulars: membrane containing LPAR1, radio labeled ligand, SPA. On the procedure: LPAR1 Membrane Binding Assay
The ability of a compound to inhibit binding of a ligand (1-(4′-(4-(((benzyloxy)carbonyl)amino)-3-methylisoxazol-5-yl)-[1,1′-biphenyl]-4-yl)cyclopropane-1-carboxylic acid) to LPAR1 is assessed via a membrane binding assay. Membrane containing LPAR1 was purchased from Cerep (Cat. No. 290312RB). Prior to the assay, membrane is thawed and homogenized for 15 seconds. 50 μl of test compounds and 50 μl of radio labeled ligand are added to the 96-well plates and then 50 of μl membrane (50-400 ug/ml) are added. Next, 50 μl of SPA PVT WGA beads are added (1-5 mg/ml) and the plates are sealed and incubated at room temperate for 5 minutes. Radio activity is measured by Beta Counter and IC50 values are determined using “Genedata Screener” analysis tool.
Target sequence in this assay (Q92633 whole entry, species assumed): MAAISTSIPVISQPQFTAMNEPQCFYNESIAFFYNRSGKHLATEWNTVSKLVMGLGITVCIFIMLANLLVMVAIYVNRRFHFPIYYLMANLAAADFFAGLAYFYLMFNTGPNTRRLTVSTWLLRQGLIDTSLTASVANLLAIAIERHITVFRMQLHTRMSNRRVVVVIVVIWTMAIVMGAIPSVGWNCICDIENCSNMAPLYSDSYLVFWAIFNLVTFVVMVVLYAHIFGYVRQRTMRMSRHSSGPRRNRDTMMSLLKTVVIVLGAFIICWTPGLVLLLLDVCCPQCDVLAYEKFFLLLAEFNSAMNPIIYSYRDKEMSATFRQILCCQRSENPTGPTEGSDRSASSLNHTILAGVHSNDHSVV

Data set [3] has as its system Human hepatic stellate cell line LX-2. Briefly: Calcium Influx of Human Hepatic Stellate Cells (LX-2). Format: cell-based. As to conditions: LX-2 cells, LPA-stimulated calcium influx. The protocol: Calcium Influx of Human Hepatic Stellate Cells (LX-2)
Human hepatic stellate cell line LX-2 is purchased from EMD Millpore. LX-2 cells are seeded at 20,000-40,000 cells per well in a 96-well poly-D-lysine coated plate one day before the assay. Prior to the assay, the cells are washed once with assay buffer (HBSS containing 20 mM HEPES and 0.2% BSA) and then incubated in 50 μl of assay buffer for 60 minutes. Then 50 μl of a calcium indicator dye (Fluo-4 NW, Molecular Probes) are added to each well and incubation is continued for 30 minutes at 37° C. and then 30 minutes at room temperature. 50 μl of test compounds in 4% DMSO are added to the cells and incubation is continued at room temperature for 40 minutes. Cells are stimulated by the addition of 50 μl of 128 nM LPA and intracellular calcium is measured using the FLIPR TETRA (Molecular Devices). IC50 values are determined using “Genedata Screener” analysis tool.

Data set [4] has as its target T1, LPAR1. Briefly: LPAR1 Cytokine Release Assay (IL-6, MG63 cells). Type of data set: cell-based. Particulars: LPA-stimulated IL-6 levels, 24 hours, ELISA. On the procedure:
LPAR1 Cytokine Release Assay
Human MG63 cells are seeded at 20,000 per well in 96-well plates and incubated in MEM medium. One day later, the cell culture medium is removed and 60 μl of test compounds are added to each well. 30 minutes later, 60 μl of LPA (10 μM) are added to each well. 24 hours later, 50 μl of supernatant from each well are taken and IL-6 levels are measure by using ELISA kit (R&D Systems, Cat. No. D6050). IC50 values are determined using “Genedata Screener” analysis tool.
A general note: ELISA stands for enzyme-linked immunosorbent assay.
Target sequence in this assay (Q92633 whole entry): as the sequence (Q92633 whole entry, species assumed) above

In data set [5] the target is T1, LPAR1. Description: LPAR1 Calcium Flux Assay. Type of data set: cell-based. As to conditions: U937 cells overexpressing human LPAR1, LPA-stimulated calcium, FLIPR. On the procedure: LPAR1 Calcium Flux Assays
A cDNA encoding the human LPAR1 receptor is synthesized and cloned into pDNA3 expression plasmid. The plasmid is transfected in U937 cells using Lipofectamine 2000 (Invitrogen Corp., USA). Clones stably expressing human LPAR1 are selected using puromycin and identified as cells that show Ca-influx in response to LPA.
U937 cells overexpressing human LPAR1 are seeded at 100,000 cells per well in a 96-well fibronectin (10 ug/ml) coated plate in 60 μl of assay buffer (HBSS containing 20 mM HEPES and 0.2% BSA) and then incubated for 60 minutes. Then 50 μl of a calcium indicator dye (Fluo-4 NW, Molecular Probes) are added to each well and incubation continued for 30 minutes at 37° C. and then 30 minutes at room temperature. 50 μl of test compounds in 4% DMSO are added to the cells and incubation continued at room temperature for 40 minutes. Cells are the stimulated by the addition of 50 μl of 128 nM LPA and intracellular calcium is measured using the FLIPR TETRA (Molecular Devices). IC50 values are determined using “Genedata Screener” analysis tool.
Target sequence in this assay (Q92633 whole entry): as the sequence (Q92633 whole entry, species assumed) above

Data set [6] is described as follows: Rodent Pharmacokinetics - Mouse PK. As to conditions: C57, plasma; for AUC / bioavailability: 10 mg/kg; for AUC: PO; for clearance / Vd: intravenous; for Vd: read-out: Vdss; for bioavailability: oral. Format: in vivo, C57 mice. The protocol:
The pharmacokinetics of compounds are determined in male Sprague-Dawley rats or C57 mice. The rats are administered a single 1 mg/kg intravenous (IV) and 10 mg/kg oral gavage (PO) dose. The vehicles are 20% Captisol w/v in 25 mM NaPO4 buffer, pH8 and 1% hydroxyethylcellulose/0.25% polysorbate 80 and 0.05% antifoam 1510-US in distilled water for the intravenous and oral dose, respectively. Blood samples are collected at predose (PO only), 0.08 (IV only), 0.25, 0.5, 1, 2, 4, 8, 12 and 24 h after initiation of compound administration. Blood samples are centrifuged to obtain plasma. The plasma samples are analyzed by LC-MS/MS to determine compound concentrations.

Chain of human LPAR3 (Q9UBY5 whole entry): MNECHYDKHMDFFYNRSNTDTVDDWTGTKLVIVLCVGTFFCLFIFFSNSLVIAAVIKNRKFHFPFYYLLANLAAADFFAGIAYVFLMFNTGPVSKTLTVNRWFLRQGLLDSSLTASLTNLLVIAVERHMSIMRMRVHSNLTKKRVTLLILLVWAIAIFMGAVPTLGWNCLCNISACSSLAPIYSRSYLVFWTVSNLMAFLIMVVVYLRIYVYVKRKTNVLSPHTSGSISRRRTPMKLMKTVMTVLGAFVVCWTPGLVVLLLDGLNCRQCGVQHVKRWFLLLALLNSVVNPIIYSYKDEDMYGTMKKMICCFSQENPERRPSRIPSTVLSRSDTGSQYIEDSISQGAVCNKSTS

A word on the IC50: it is the midpoint of a concentration-inhibition curve. A word on the Ki: it is the dissociation constant of the complex between target and ligand, obtained from inhibition or displacement. Read a low Ki as higher affinity. For the molecule `CC(C)c1cncc(Nc2c(-c3ncc(-c4ccc(C5(C(=O)O)CC5)cc4)cn3)cnn2C)n1` [Example 18, 1-[4-[2-[5-[(6-isopropylpyrazin-2-yl)amino]-1-methyl-pyrazol-4-yl]pyrimidin-5-yl]phenyl]cyclopropanecarboxylic acid], the concentration for half-maximal inhibition (IC50) amounted to 2360 nM in data set [1], 7.94 nM in data set [3], 6.67 nM in data set [4] and 24 nM in data set [5]. This molecule also registered a Ki in data set [2] of 24.5 nM.
For `Cc1cc(C2(C(=O)O)CC2)ccc1-c1ccc(-c2cnn(C)c2Nc2cncc(C(C)C)n2)nc1` [Example 22, 1-[4-[6-[5-[(6-isopropylpyrazin-2-yl)amino]-1-methyl-pyrazol-4-yl]-3-pyridyl]-3-methyl-phenyl]cyclopropanecarboxylic Acid; Hydrochloride], the IC50 is 1170 nM in data set [1], 10.4 nM in data set [3], 11.2 nM in data set [4] and 30.9 nM in data set [5].
Broadly, the AUC is the area under the concentration-time curve, a measure of exposure. The low end stands for low exposure, the high end for high exposure. The term clearance denotes the rate of elimination divided by the concentration. A high value points to a high capacity for elimination. The term bioavailability denotes dose-corrected exposure relative to a reference, in per cent. A lower bioavailability goes with little systemic uptake. Consider `Cn1ncc(-c2ccc(-c3ccc(C4(C(=O)O)CC4)cc3)cn2)c1Nc1cncc(C(F)(F)F)n1` [Example 21, 1-[4-[6-[1-methyl-5-[[6-(trifluoromethyl)pyrazin-2-yl]amino]pyrazol-4-yl]-3-pyridyl]phenyl]cyclopropanecarboxylic Acid], for which, in data set [1], the IC50 worked out at 1610 nM. Besides, the affinity in data set [2], expressed as Ki, was 27.6 nM. For the same molecule, the 50% inhibitory concentration (IC50) in data set [3] came to 14.1 nM. Besides, the IC50 in data set [4] worked out at 8.81 nM. In data set [6], the exposure (AUC) stood at 16.3 µM·h, the clearance turned out to be 4.99 mL/min/kg, the Vd turned out to be 1.46 L/kg and the bioavailability was 24.8%. For the same molecule, the IC50 in data set [5] amounted to 36.3 nM.
As to `CC(C)c1cncc(Nc2c(-c3ccc(-c4ccc(C5(C(=O)O)CC5)nc4)cn3)cnn2C)n1` [Example 23, Ammonia; 1-[5-[6-[5-[(6-isopropylpyrazin-2-yl)amino]-1-methyl-pyrazol-4-yl]-3-pyridyl]-2-pyridyl]cyclopropanecarboxylic Acid], the IC50 is more than 10000 nM in data set [1], 21.5 nM in data set [3], 183 nM in data set [4] and 111 nM in data set [5].
Regarding `Cn1ncc(-c2ccc(-c3ccc(C4(C(=O)O)CC4)cc3)cn2)c1Nc1cncc(C(C)(C)F)n1` [Example 13, 1-[4-[6-[5-[[6-(1-fluoro-1-methyl-ethyl)pyrazin-2-yl]amino]-1-methyl-pyrazol-4-yl]-3-pyridyl]phenyl]cyclopropanecarboxylic Acid; Hydrochloride], the half-inhibitory concentration (IC50) in data set [1] was determined as 804 nM; in data set [3], 10.5 nM; in data set [5], 44 nM. In addition, the Ki in data set [2] amounted to 28 nM.
Take `CC(C)Cc1cncc(Nc2c(-c3ccc(-c4ccc(C5(C(=O)O)CC5)cc4)cc3)cnn2C)n1` [Example 17, 1-[4-[4-[5-[(6-isobutylpyrazin-2-yl)amino]-1-methyl-pyrazol-4-yl]phenyl]phenyl]cyclopropanecarboxylic Acid]: the 50% inhibitory concentration (IC50) in data set [1] amounted to 1830 nM; in data set [3], 23.1 nM; in data set [4], 5.81 nM; in data set [5] it was 54.7 nM.
In the case of `CC(C)c1cncc(Nc2c(-c3ccc(-c4ccc(C5(C(=O)O)CC5)cc4CC#N)cn3)cnn2C)n1` [Example 15, 1-[3-(cyanomethyl)-4-[6-[5-[(6-isopropylpyrazin-2-yl)amino]-1-methyl-pyrazol-4-yl]-3-pyridyl]phenyl]cyclopropanecarboxylic Acid; Hydrochloride], the IC50 in data set [1] is more than 10000 nM; in data set [3] it was 19.4 nM; in data set [5] it was 42.9 nM. The affinity in data set [2] corresponds to a Ki of 94.8 nM.
As to `CC(C)c1cncc(Nc2c(-c3ccc(-c4ccc(C5(C(=O)O)CC5)cc4)cc3)cnn2C)n1` [Example 26, 1-[4-[4-[5-[(6-isopropylpyrazin-2-yl)amino]-1-methyl-pyrazol-4-yl]phenyl]phenyl]cyclopropanecarboxylic Acid], the concentration for half-maximal inhibition (IC50) in data set [1] was more than 10000 nM. Besides, the Ki in data set [2] came out at 18.8 nM. The half-maximal inhibitory concentration (IC50) in data set [3] amounted to 13.1 nM. Besides, half-maximal inhibition in data set [4] (IC50) was put at 4.79 nM. Besides, in data set [6], the AUC was 9.06 µM·h, the clearance came out at 2 mL/min/kg, the Vd stood at 2 L/kg and the bioavailability stood at 30%. The IC50 in data set [5] was determined as 23.6 nM.
Take `Cn1ncc(-c2ccc(-c3ccc(C4(C(=O)O)CC4)cc3)cn2)c1Nc1cncc(C(C)(F)F)n1` [Example 12, 1-[4-[6-[5-[[6-(1,1-difluoroethyl)pyrazin-2-yl]amino]-1-methyl-pyrazol-4-yl]-3-pyridyl]phenyl]cyclopropanecarboxylic Acid; Hydrochloride]: the IC50 was 4280 nM in data set [1], 14.4 nM in data set [3] and 24.4 nM in data set [5]. Moreover, in data set [2], the inhibition constant Ki turned out to be 40.9 nM.
In the same order, the values of `Cn1ncc(-c2ccc(-c3ccc(C4(C(=O)O)CC4)cc3)cc2)c1Nc1cncc(C2CC2)n1` [Example 25, Ammonium 1-[4-[4-[5-[(6-cyclopropylpyrazin-2-yl)amino]-1-methyl-pyrazol-4-yl]phenyl]phenyl]cyclopropanecarboxylate] are more than 10000 nM, 24.2 nM, 52.9 nM and 30.8 nM.
